In patent publication US20250099383A1, “COMPOSITIONS AND METHODS FOR DELIVERY OF NUCLEIC ACIDS” (Poseida Therapeutics, Inc., priority 2022, published 2025):

Test: Physical characteristics of LNPs (particle size, PDI)
Assay type: physicochemical
Conditions: for PDI DNA / Particle Size (nm) DNA: LNP with Fluc DNA, compound/DOPE/Cholesterol/DMG-PEG2000 38/50/10.0/2.0, Lipid:DNA 45:1 (w/w); for PDI RNA / Particle Size (nm) RNA: LNP with Fluc mRNA, compound/DOPE/Cholesterol/DMG-PEG2000 41.44/45.85/10/2.7, Lipid:RNA 40:1 (w/w)
Experimental: LNP compositions of the present disclosure comprising exemplary compounds of Formula (I) were prepared by combining various percentages of an exemplary compound of Formula (I), the phospholipid DOPE, the structural lipid cholesterol (Chol) and 1,2-dimyristoyl-sn-glycerol methoxypolyethylene glycol (DMG-PEG2000; Avanti Polar Lipids, Alabaster, Alabama, USA).
Individual 25 mg/ml stock solutions were prepared by solubilizing the lipids in 200-proof HPLC-grade ethanol and stock solutions were stored at −80° C. until formulated. At the time of formulation, the lipid stock solutions were briefly allowed to equilibrate to room temp and then placed on a hot plate maintained at a temperature range of 50-55° C.
A 1 mg/ml solution of the desired mRNA or DNA to be incorporated into the LNPs was added to 150 mM sodium acetate buffer (pH 5.2) to form a stock solution and kept on ice. The aqueous mRNA or DNA was then added to the lipids as shown in Table 4 or 5 and hand-mixed vigorously with a single channel pipettor.
The resultant mRNA or DNA LNP compositions were then transferred to a Repligen Float-A-Lyzer dialysis device-having a molecular weight cut off (MWCO) of 8-10 kDa (Spectrum Chemical Mfg. Corp, CA, USA) and processed by dialysis against phosphate buffered saline (PBS) (dialysate: dialysis buffer volume at least 1:200 v/v), pH 7.4 overnight at 4° C. (or alternatively room temperature for at least 4 hours), to remove the 25% ethanol and achieve a complete buffer exchange. In some experiments the LNPs were further concentrated by in an Amicon® Ultra-4 centrifugal filter unit, MWCO-30 kDa (Millipore Sigma, USA) spun at ˜4100 x g in an ultracentrifuge. The mRNA and DNA LNPs were then stored at 4° C. until further use.
LNP compositions of the present disclosure comprising mRNA or DNA encoding firefly luciferase (hereafter “Fluc”; TriLink) and COMPOUNDS 5-49 were prepared as described in Example 61 by combining one of COMPOUNDS 5-49, the phospholipid DOPE, the structural lipid cholesterol (Chol) and 1,2-dimyristoyl-sn-glycerol methoxypolyethylene glycol (DMG-PEG2000) in the percentages presented in Tables 6 and 7:
The physical characteristics of the resulting LNPs were analyzed.
A 1 mg/ml solution of the 5′-CleanCap--fLuciferase mRNA (TriLink Biotech) to be incorporated into the LNPs was added to 150 mM sodium acetate buffer (pH 5.2) to form a stock solution and kept on ice. The lipid phase was mixed with the aqueous mRNA phase inside a microfluidic chip using a NanoAssemblr® instrument (Precision Nanosystems, Vancouver, BC, Canada) according to the manufacturer's instructions to form LNP compositions comprising encapsulated mRNAs.
The average particle size diameter of the LNPs was approximately 75-150 nm.

| Compound | PDI DNA | Particle Size (nm) DNA | PDI RNA | Particle Size (nm) RNA |
| --- | --- | --- | --- | --- |
| CC(C)=CCC/C(C)=C/CCC1=CCC(C(=O)OCCOC(=O)CCN(CCCN(C)C)CCC(=O)OCCOC(=O)C2CC=C(CC/C=C(\C)CCC=C(C)C)CC2)CC1 (stereo not shown) [Compound 5, (E)-((3,3′-((3-(dimethylamino)propyl)azanediyl)bis(propanoyl))bis(oxy)) bis(ethane-2,1-diyl)bis(4-((E)-4,8-dimethylnona-3,7-dien-1-yl)cyclohex-3-enecarboxylate)] | 0.203 | 187.9 nm | 0.200 | 180.3 nm |
| CC(C)=CCC/C(C)=C/CCC1=CCC(C(=O)OCCOC(=O)CCN(CCC(=O)OCCOC(=O)C2CC=C(CC/C=C(\C)CCC=C(C)C)CC2)CCN2CCCCC2)CC1 (stereo not shown) [Compound 6, (E)-((3,3′-((2-(piperidin-1-yl)ethyl)azanediyl)bis(propanoyl))bis(oxy)) bis(ethane-2,1-diyl)bis(4-((E)-4,8-dimethylnona-3,7-dien-1-yl)cyclohex-3-enecarboxylate)] | 0.154 | 167 nm | 0.260 | 202.2 nm |
| CC(C)=CCC/C(C)=C/CCC1=CCC(C(=O)OCCOC(=O)CCN(CCCCCCN(CCC(=O)OCCOC(=O)C2CC=C(CC/C=C(\C)CCC=C(C)C)CC2)CCC(=O)OCCOC(=O)C2CC=C(CC/C=C(\C)CCC=C(C)C)CC2)CCC(=O)OCCOC(=O)C2CC=C(CC/C=C(\C)CCC=C(C)C)CC2)CC1 (stereo not shown) [Compound 7] | 0.221 | 299.7 nm | 0.099 | 441.0 nm |
| CC(C)=CCC/C(C)=C/CCC1=CCC(C(=O)OCCOC(=O)CCN(CCC(=O)OCCOC(=O)C2CC=C(CC/C=C(\C)CCC=C(C)C)CC2)CCN(CCN(CCC(=O)OCCOC(=O)C2CC=C(CC/C=C(\C)CCC=C(C)C)CC2)CCC(=O)OCCOC(=O)C2CC=C(CC/C=C(\C)CCC=C(C)C)CC2)CCN(CCC(=O)OCCOC(=O)C2CC=C(CC/C=C(\C)CCC=C(C)C)CC2)CCC(=O)OCCOC(=O)C2CC=C(CC/C=C(\C)CCC=C(C)C)CC2)CC1 (stereo not shown) [Compound 11] | 0.152 | 396.1 nm | 0.145 | 355.6 nm |
| CC(C)CCCC(C)CCCC1CCC(C(=O)OCCOC(=O)CCN(CCCN(C)C)CCC(=O)OCCOC(=O)C2CCC(CCCC(C)CCCC(C)C)CC2)CC1 (stereo not shown) [Compound 12, ((3,3′-((3-(dimethylamino)propyl)azanediyl)bis(propanoyl))bis(oxy)) bis(ethane-2,1-diyl)bis(4-(4,8-dimethylnonyl)cyclohexanecarboxylate)] | 0.235 | 170.6 nm | 0.235 | 167.6 nm |
| CC(C)CCCC(C)CCCC1CCC(C(=O)OCCOC(=O)CCN(CCC(=O)OCCOC(=O)C2CCC(CCCC(C)CCCC(C)C)CC2)CCN2CCCCC2)CC1 (stereo not shown) [Compound 13, ((3,3′-((2-(piperidin-1-yl)ethyl)azanediyl)bis(propanoyl))bis(oxy)) bis(ethane-2,1-diyl)bis(4-(4,8-dimethylnonyl)cyclohexanecarboxylate)] | 0.232 | 174.1 nm | 0.272 | 120.6 nm |
| CC(C)CCCC(C)CCCC1CCC(C(=O)OCCOC(=O)CCN(CCCCCCN(CCC(=O)OCCOC(=O)C2CCC(CCCC(C)CCCC(C)C)CC2)CCC(=O)OCCOC(=O)C2CCC(CCCC(C)CCCC(C)C)CC2)CCC(=O)OCCOC(=O)C2CCC(CCCC(C)CCCC(C)C)CC2)CC1 (stereo not shown) [Compound 14] | 0.219 | 348.8 nm | 0.104 | 334.8 nm |
| CC(C)CCCC(C)CCCC1CCC(C(=O)OCCOC(=O)CCN(CCC(=O)OCCOC(=O)C2CCC(CCCC(C)CCCC(C)C)CC2)CC(C)N(CCC(=O)OCCOC(=O)C2CCC(CCCC(C)CCCC(C)C)CC2)CCC(=O)OCCOC(=O)C2CCC(CCCC(C)CCCC(C)C)CC2)CC1 (stereo not shown) [Compound 15] | 0.183 | 297.6 nm | 0.115 | 362.5 nm |
| CC(C)CCCC(C)CCCC1CCC(C(=O)OCCOC(=O)CCN(CCC(=O)OCCOC(=O)C2CCC(CCCC(C)CCCC(C)C)CC2)CCN(CCN(CCC(=O)OCCOC(=O)C2CCC(CCCC(C)CCCC(C)C)CC2)CCC(=O)OCCOC(=O)C2CCC(CCCC(C)CCCC(C)C)CC2)CCN(CCC(=O)OCCOC(=O)C2CCC(CCCC(C)CCCC(C)C)CC2)CCC(=O)OCCOC(=O)C2CCC(CCCC(C)CCCC(C)C)CC2)CC1 (stereo not shown) [Compound 18] | 0.072 | 368.6 nm | 0.153 | 323.3 nm |
| CC(C)=CCCC1=CCC(C(=O)OCCOC(=O)CCN(CCCCCCN(CCC(=O)OCCOC(=O)C2CC=C(CCC=C(C)C)CC2)CCC(=O)OCCOC(=O)C2CC=C(CCC=C(C)C)CC2)CCC(=O)OCCOC(=O)C2CC=C(CCC=C(C)C)CC2)CC1 (stereo not shown) [Compound 20] | 0.223 | 304.3 nm | 0.082 | 316.9 nm |
| CC(C)=CCCC1=CCC(C(=O)OCCOC(=O)CCN(CCC(=O)OCCOC(=O)C2CC=C(CCC=C(C)C)CC2)CC(C)N(CCC(=O)OCCOC(=O)C2CC=C(CCC=C(C)C)CC2)CCC(=O)OCCOC(=O)C2CC=C(CCC=C(C)C)CC2)CC1 (stereo not shown) [Compound 21] | 0.206 | 268.3 nm | 0.102 | 296.9 nm |
| CC(C)=CCCC1=CCC(C(=O)OCCOC(=O)CCN(CCC(=O)OCCOC(=O)C2CC=C(CCC=C(C)C)CC2)CCN(CCN(CCC(=O)OCCOC(=O)C2CC=C(CCC=C(C)C)CC2)CCC(=O)OCCOC(=O)C2CC=C(CCC=C(C)C)CC2)CCN(CCC(=O)OCCOC(=O)C2CC=C(CCC=C(C)C)CC2)CCC(=O)OCCOC(=O)C2CCC(CCC=C(C)C)CC2)CC1 (stereo not shown) [Compound 24] | 0.294 | 353.7 nm | 0.106 | 314.9 nm |
| CC(C)CCCC1CCC(C(=O)OCCOC(=O)CCN(CCCN(C)C)CCC(=O)OCCOC(=O)C2CCC(CCCC(C)C)CC2)CC1 (stereo not shown) [Compound 25] | 0.227 | 188.5 nm | 0.143 | 177.9 nm |
| CC(C)CCCC1CCC(C(=O)OCCOC(=O)CCN(CCC(=O)OCCOC(=O)C2CCC(CCCC(C)C)CC2)CCN2CCCCC2)CC1 (stereo not shown) [Compound 26] | 0.151 | 162.1 nm | 0.202 | 169.4 nm |
| CC(C)CCCC1CCC(C(=O)OCCOC(=O)CCN(CCCCCCN(CCC(=O)OCCOC(=O)C2CCC(CCCC(C)C)CC2)CCC(=O)OCCOC(=O)C2CCC(CCCC(C)C)CC2)CCC(=O)OCCOC(=O)C2CCC(CCCC(C)C)CC2)CC1 (stereo not shown) [Compound 27] | 0.177 | 253.9 nm | 0.149 | 293.9 nm |
| CC(C)CCCC1CCC(C(=O)OCCOC(=O)CCN(CCC(=O)OCCOC(=O)C2CCC(CCCC(C)C)CC2)CC(C)N(CCC(=O)OCCOC(=O)C2CCC(CCCC(C)C)CC2)CCC(=O)OCCOC(=O)C2CCC(CCCC(C)C)CC2)CC1 (stereo not shown) [Compound 28] | 0.12 | 224.7 nm | 0.027 | 254.2 nm |
